Assay results as given in patent US20240279220A1, “INDOLE COMPOUNDS AND METHODS OF USE” (Genzyme Corporation, priority 2021, published 2024).

Tested on: NBD1/3D
Experiment: Aggregation analysis using differential static light scattering (DSLS), NBD1 thermal stability
Type: binding, Human
Details: ΔTagg versus DMSO control; compound at 100 μM
In short: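 Thermal stabilisation reported as ΔTagg, i.e. aggregation temperature relative to averaged DMSO wells. Tagg came from the inflection of differential static light scattering imaged 25–70 °C while NBD1 (0.2 mg/ml, Tris pH 7.6 buffer containing ATP, MgCl2, DTT, glycerol) was ramped 1 °C/min.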

| SMILES | DSLS NBD1/3D Human Stability delta-T (° C.) @ 100 (μM) |
| --- | --- |
| Cc1c(Oc2ccc(F)c(-c3ncc(C(C)(O)c4cccc(CCC(=O)O)c4)[nH]3)c2)c(F)cc2[nH]ccc12 (single isomer, unassigned) [Example 215A, 3-(3-(1-(2-(2-Fluoro-5-((6-fluoro-4-methyl-1H-indol-5-yl)oxy)phenyl)-1H-imidazol-5-yl)-1-hydroxyethyl)phenyl)propanoic acid] | B (B: 5-10° C.) |
| O=C(O)CCc1cccc(C2(c3cnc(-c4cc(Oc5c(F)cc6[nH]ccc6c5F)ccc4F)[nH]3)CC2)c1 [Example 143, 3-(3-(1-(2-(5-((4,6-difluoro-1H-indol-5-yl)oxy)-2-fluorophenyl)-1H-imidazol-5-yl)cyclopropyl)phenyl)propanoic acid] | B (B: 5-10° C.) |
| OCCCc1cccc(Cc2cnc(-c3cc(Oc4c(F)cc5[nH]ccc5c4F)ccc3F)[nH]2)c1F [Example 268, 3-(3-((2-(5-((4,6-Difluoro-1H-indol-5-yl)oxy)-2-fluorophenyl)-1H-imidazol-5-yl)methyl)-2-fluorophenyl)propan-1-ol] | C (C: ≤5° C.) |
| Cc1c(Oc2cccc(-c3ccn(C(C)c4cccc(CC(=O)O)c4)n3)c2)ccc2[nH]ccc12 (centres unmarked) [Example 4, 2-(3-(1-(3-(3-((4-methyl-1H-indol-5-yl)oxy)phenyl)-1H-pyrazol-1-yl)ethyl)phenyl)acetic acid] | B (B: 5-10° C.) |
| CC(C)(c1cccc(CCC(=O)O)c1)c1cnc(-c2cc(Oc3c(F)cc4[nH]ccc4c3F)ccc2F)[nH]1 [Example 145, 3-(3-(2-(2-(5-((4,6-difluoro-1H-indol-5-yl)oxy)-2-fluorophenyl)-1H-imidazol-5-yl)propan-2-yl)phenyl)propanoic acid] | B (B: 5-10° C.) |
| Cc1c(Oc2ccc(F)c(-c3ccn(Cc4cccc(CCC(N)=O)c4)n3)c2)c(F)cc2[nH]ccc12 [Example 17, 3-(3-((3-(2-Fluoro-5-((6-fluoro-4-methyl-1H-indol-5-yl)oxy)phenyl)-1H-pyrazol-1-yl)methyl)phenyl)propanamide] | C (C: ≤5° C.) |
| CO[C@]1(C)C[C@](c2cc(F)cc(CCC(=O)O)c2)(c2cnc(-c3cc(Oc4c(F)cc5[nH]ccc5c4S(C)(=O)=O)ccc3F)[nH]2)C1 [Example 73, 3-(3-fluoro-5-((1s,3s)-1-(2-(2-fluoro-5-((6-fluoro-4-(methylsulfonyl)-1H-indol-5-yl)oxy)phenyl)-1H-imidazol-5-yl)-3-methoxy-3-methylcyclobutyl)-phenyl)propanoic acid] | A (A: T ≥ 10° C.) |
| Cc1c(Oc2ccc(F)c(-c3ncc(Cc4cccc(CC(=O)O)n4)[nH]3)c2)c(F)cc2[nH]ccc12 [Example 91, 2-(6-((2-(2-fluoro-5-((6-fluoro-4-methyl-1H-indol-5-yl)oxy)phenyl)-1H-imidazol-5-yl)methyl)pyridin-2-yl)acetic acid] | B (B: 5-10° C.) |
| COC(=O)C(F)Cc1cccc(C(O)c2cnc(-c3cccc(Oc4ccc5[nH]ccc5c4C)c3)[nH]2)c1 (centres unmarked) [Example 173, Methyl 2-fluoro-3-(3-(hydroxy(2-(3-((4-methyl-1H-indol-5-yl)oxy)phenyl)-1H-imidazol-5-yl)methyl)phenyl)propanoate] | B (B: 5-10° C.) |
| Cc1c(Oc2ccc(F)c(-c3ncc(C4(c5cccc(CCC(=O)O)c5)OCC(C)(C)CO4)[nH]3)c2)c(F)cc2[nH]ccc12 [Example 230, 3-(3-(2-(2-(2-fluoro-5-((6-fluoro-4-methyl-1H-indol-5-yl)oxy)phenyl)-1H-imidazol-5-yl)-5,5-dimethyl-1,3-dioxan-2-yl)phenyl)propanoic acid] | A (A: T ≥ 10° C.) |
| [2H]C([2H])([2H])C(C#N)(c1cc(F)cc(CCC(=O)O)c1)c1cnc(-c2cc(Oc3c(F)c(F)c4[nH]ccc4c3C)ccc2F)[nH]1 (centres unmarked) [Example 63, 3-(3-(1-cyano-1-(2-(5-((6,7-difluoro-4-methyl-1H-indol-5-yl)oxy)-2-fluorophenyl)-1H-imidazol-5-yl)ethyl-2,2,2-d3)-5-fluorophenyl)propanoic acid] | B (B: 5-10° C.) |
| O=C(O)CCc1cccc(C2(c3cnc(-c4cc(Oc5c(F)cc6[nH]ccc6c5SC(F)(F)F)ccc4F)[nH]3)CCOCC2)c1 [Example 82, 3-(3-(4-(2-(2-Fluoro-5-((6-fluoro-4-((trifluoromethyl)thio)-1H-indol-5-yl)oxy)phenyl)-1H-imidazol-5-yl)tetrahydro-2H-pyran-4-yl)phenyl)propanoic acid] | B (B: 5-10° C.) |
| COCCOC(C)(c1cccc(CCC(=O)O)c1)c1cnc(-c2cc(Oc3c(F)c(F)c4[nH]ccc4c3C)ccc2F)[nH]1 (centres unmarked) [Example 234, 3-(3-(1-(2-(5-((6,7-difluoro-4-methyl-1H-indol-5-yl)oxy)-2-fluorophenyl)-1H-imidazol-5-yl)-1-(2-methoxyethoxy)ethyl)phenyl) propanoic acid] | B (B: 5-10° C.) |
| Cc1nc(-c2cc(Oc3c(F)cc4[nH]ccc4c3F)ccc2F)[nH]c1C(O)c1cccc(CCC(=O)O)c1F (single isomer, unassigned) [Example 179, 3-(3-((2-(5-((4,6-difluoro-1H-indol-5-yl)oxy)-2-fluorophenyl)-4-methyl-1H-imidazol-5-yl)(hydroxy)methyl)-2-fluorophenyl)propanoic acid] | B (B: 5-10° C.) |
| Cc1c(Oc2ccc(F)c(-c3ncc(C(C)(O)c4cccc(CC(F)C(=O)O)c4)[nH]3)c2)c(F)cc2[nH]ccc12 (centres unmarked) [Example 199, 2-fluoro-3-(3-(1-(2-(2-fluoro-5-((6-fluoro-4-methyl-1H-indol-5-yl)oxy)phenyl)-1H-imidazol-5-yl)-1-hydroxyethyl)phenyl) propanoic acid] | A (A: T ≥ 10° C.) |
| Cc1c(Oc2cccc(-c3ncc(C(C)(O)c4cccc(CCC(=O)O)c4)[nH]3)c2)c(F)cc2[nH]ccc12 (centres unmarked) [Example 185, 3-(3-(1-(2-(3-((6-fluoro-4-methyl-1H-indol-5-yl)oxy)phenyl)-1H-imidazol-5-yl)-1-hydroxyethyl)phenyl) propanoic acid] | A (A: T ≥ 10° C.) |
| [2H]C([2H])([2H])C(C#N)(c1cc(F)cc(CCC(=O)O)c1)c1c[nH]c(-c2cc(Oc3c(F)c(F)c4[nH]ccc4c3F)ccc2F)n1 (single isomer, unassigned) [Example 65, 3-(3-(1-cyano-1-(2-(2-fluoro-5-((4,6,7-trifluoro-1H-indol-5-yl)oxy)phenyl)-1H-imidazol-4-yl)ethyl-2,2,2-d3)-5-fluorophenyl)propanoic acid] | B (B: 5-10° C.) |
| C[C@H]1C[C@](c2cccc(CCC(=O)O)c2)(c2cnc(-c3cc(Oc4c(F)cc5[nH]ccc5c4F)ccc3F)[nH]2)CCO1 (single isomer, unassigned) [Example 152] | B (B: 5-10° C.) |
| CC(O)(c1cccc([C@@H]2C[C@H]2C(=O)O)c1)c1c[nH]c(-c2cccc(Oc3c(F)cc4[nH]ccc4c3F)c2)n1 (mixture of isomers) [Example 184, rac-(1r,2r)-2-(3-(1-(2-(3-((4,6-Difluoro-1H-indol-5-yl)oxy)phenyl)-1H-imidazol-4-yl)-1-hydroxyethyl)phenyl)cyclopropane-1-carboxylic acid] | B (B: 5-10° C.) |
| O=C(O)CCCCCCc1cccc(Cc2nnc(-c3cccc(Oc4ccc5[nH]ccc5c4)c3)[nH]2)c1 [Example 256, 7-(3-((5-(3-((1H-indol-5-yl)oxy)phenyl)-4H-1,2,4-triazol-3-yl)methyl)phenyl)heptanoic acid] | C (C: ≤5° C.) |
| CC(C)(c1cnc(-c2cc(Oc3c(F)cc4[nH]ccc4c3CC(F)(F)F)ccc2F)[nH]1)c1cccc(CCC(=O)O)c1F [Example 163, 3-(2-fluoro-3-(2-(2-(2-fluoro-5-((6-fluoro-4-(2,2,2-trifluoroethyl)-1H-indol-5-yl)oxy)phenyl)-1H-imidazol-5-yl)propan-2-yl)phenyl)propanoic acid] | B (B: 5-10° C.) |
| CS(=O)(=O)c1c(Oc2ccc(F)c(-c3ncc(Cc4ccc5c(c4)CC(C(=O)O)C5)[nH]3)c2)c(F)cc2[nH]ccc12 (single isomer, unassigned) [Example 83B, 5-((2-(2-Fluoro-5-((6-fluoro-4-(methylsulfonyl)-1H-indol-5-yl)oxy)phenyl)-1H-imidazol-5-yl)methyl)-2,3-dihydro-1H-indene-2-carboxylic acid] | B (B: 5-10° C.) |
| NCc1c(CCC(=O)O)cccc1Cc1cnc(-c2cc(Oc3c(F)cc4[nH]ccc4c3F)ccc2F)[nH]1 [Example 141, 3-(2-(Aminomethyl)-3-((2-(5-((4,6-difluoro-1H-indol-5-yl)oxy)-2-fluorophenyl)-1H-imidazol-5-yl)methyl)phenyl)propanoic acid] | C (C: ≤5° C.) |
| CC(O)(c1cccc(CCC(=O)O)c1)c1nnc(-c2cc(Oc3c(F)cc4[nH]ccc4c3F)ccc2F)[nH]1 (centres unmarked) [Example 250, 3-(3-(1-(5-(5-((4,6-Difluoro-1H-indol-5-yl)oxy)-2-fluorophenyl)-4H-1,2,4-triazol-3-yl)-1-hydroxyethyl)phenyl)propanoic acid] | B (B: 5-10° C.) |
| O=C(O)CCc1cccc(Cc2cnc(-c3cc(Oc4c(F)cc5[nH]ccc5c4F)ccc3F)[nH]2)c1Cl [Example 110, 3-(2-chloro-3-((2-(5-((4,6-difluoro-1H-indol-5-yl)oxy)-2-fluorophenyl)-1H-imidazol-5-yl)methyl)phenyl)propanoic acid] | B (B: 5-10° C.) |
| COC(=O)CCc1cccc(Cn2ccc(-c3cccc(Oc4ccc5[nH]ccc5c4CO)c3)n2)c1 [Example 8, Methyl 3-(3-((3-(3-((4-(hydroxymethyl)-1H-indol-5-yl)oxy)phenyl)-1H-pyrazol-1-yl)methyl)phenyl)propanoate] | C (C: ≤5° C.) |
